These are literature values, as cited in patent publication US11555049B2, “Method for separation and purification of n-acetylglucosamine” (JIANGSU HARVERS BIOTECH CO., LTD., priority 2020, dated 2023).

Each structure is given as a SMILES string. Values after ≈ are worked out from the molar mass of the structure shown.

For the compound `CC(=O)N[C@H]1C(O)O[C@H](CO)[C@@H](O)[C@@H]1O` (some centres unmarked) [GlcNAc, N-acetyl-glucosamine], the solubility in water (0° C. water) is 140 mg/mL (≈ 633 mM). Further, the “solubility in organic solvents” value (organic solvents such as ethanol and propanol) was “insoluble”.
